Measurements as given in ChEMBL document CHEMBL1201862, “PubChem BioAssay data set” (2004).
Active and inactive are the calls of the source. Rule as the data show it, for most assays here: actives have a measured EC50 and inactives only a lower limit.

What was measured:
cells = assay type: functional
[1] = microbe, parasite or virus in culture; assay type: functional; settings: Mycobacterium tuberculosis
[2] = target: T1, RNA-binding protein pos-1 (Caenorhabditis elegans, UniProt G5EF15); assay: inhibitors of POS-1/mex-3 RNA binding, dose response, biochemical, fluorescence polarization (AID 1964);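 also: purified POS-1 fused to maltose binding protein made in E. coli; potency of compounds blocking POS-1 binding to fluorescent RNA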
T1 sequence (G5EF15 whole entry): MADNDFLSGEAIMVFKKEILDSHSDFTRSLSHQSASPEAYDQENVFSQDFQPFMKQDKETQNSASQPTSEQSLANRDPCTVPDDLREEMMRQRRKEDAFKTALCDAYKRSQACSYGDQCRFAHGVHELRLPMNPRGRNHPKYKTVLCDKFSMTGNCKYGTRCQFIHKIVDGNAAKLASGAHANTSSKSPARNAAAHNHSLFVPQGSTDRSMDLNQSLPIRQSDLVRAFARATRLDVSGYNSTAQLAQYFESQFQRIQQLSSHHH

[3] = target: T2, Zinc finger protein mex-5 (Caenorhabditis elegans, UniProt Q9XUB2); assay: MEX-5/TCR-2 RNA interaction inhibitors, dose response, biochemical, C. elegans, fluorescence polarization (AID 1960)
T2 sequence (Q9XUB2 whole entry): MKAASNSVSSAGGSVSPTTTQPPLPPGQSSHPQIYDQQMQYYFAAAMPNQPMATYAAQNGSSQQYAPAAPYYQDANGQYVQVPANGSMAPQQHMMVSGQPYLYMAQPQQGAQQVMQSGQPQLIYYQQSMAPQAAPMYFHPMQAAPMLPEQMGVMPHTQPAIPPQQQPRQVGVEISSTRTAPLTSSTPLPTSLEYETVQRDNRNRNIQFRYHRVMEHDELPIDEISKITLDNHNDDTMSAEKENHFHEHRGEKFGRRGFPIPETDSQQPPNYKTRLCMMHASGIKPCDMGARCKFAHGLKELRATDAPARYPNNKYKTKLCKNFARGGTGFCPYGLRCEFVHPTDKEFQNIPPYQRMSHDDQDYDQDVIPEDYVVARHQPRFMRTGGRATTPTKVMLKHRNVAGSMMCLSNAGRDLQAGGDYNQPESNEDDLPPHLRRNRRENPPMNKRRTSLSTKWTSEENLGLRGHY

Leucine aminopeptidase = target: T3, Leucine aminopeptidase (Plasmodium falciparum 3D7, UniProt Q8IL11); assay: P. falciparum M17LAP inhibitors, primary screen, biochemical, fluorogenic H-Leu-NHMec substrate, 1536-well (AID 1619); assay type: functional
T3 sequence (Q8IL11 whole entry): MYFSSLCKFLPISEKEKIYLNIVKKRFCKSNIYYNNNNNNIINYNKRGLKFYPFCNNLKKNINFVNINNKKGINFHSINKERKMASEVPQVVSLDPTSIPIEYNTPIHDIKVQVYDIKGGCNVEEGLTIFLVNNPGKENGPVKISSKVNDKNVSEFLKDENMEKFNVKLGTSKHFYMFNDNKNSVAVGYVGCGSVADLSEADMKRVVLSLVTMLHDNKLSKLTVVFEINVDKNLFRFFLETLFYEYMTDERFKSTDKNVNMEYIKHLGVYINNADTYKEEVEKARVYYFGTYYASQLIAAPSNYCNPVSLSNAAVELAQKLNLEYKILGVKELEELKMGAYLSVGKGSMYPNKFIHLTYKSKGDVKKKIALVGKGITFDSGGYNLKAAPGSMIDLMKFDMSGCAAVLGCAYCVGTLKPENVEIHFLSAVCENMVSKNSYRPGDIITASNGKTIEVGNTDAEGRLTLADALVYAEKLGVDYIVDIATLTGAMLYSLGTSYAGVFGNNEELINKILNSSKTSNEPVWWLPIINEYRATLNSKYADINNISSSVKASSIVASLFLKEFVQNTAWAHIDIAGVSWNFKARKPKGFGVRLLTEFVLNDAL

[4] = target: T4, Heat shock factor protein 1 (Mus musculus, UniProt P38532); assay: inhibition of MG132-induced HSE-luciferase signal, confirmation, cell-based, NIH3T3, luminescence, dose retest (AID 2382); assay type: functional;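 also: NIH3T3 fibroblasts with HSF1-driven luciferase reporter stressed by proteasome inhibitor MG132; luminescence from HSF1-driven luciferase expression after 8 hours of MG132 stress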
T4 sequence (P38532 whole entry): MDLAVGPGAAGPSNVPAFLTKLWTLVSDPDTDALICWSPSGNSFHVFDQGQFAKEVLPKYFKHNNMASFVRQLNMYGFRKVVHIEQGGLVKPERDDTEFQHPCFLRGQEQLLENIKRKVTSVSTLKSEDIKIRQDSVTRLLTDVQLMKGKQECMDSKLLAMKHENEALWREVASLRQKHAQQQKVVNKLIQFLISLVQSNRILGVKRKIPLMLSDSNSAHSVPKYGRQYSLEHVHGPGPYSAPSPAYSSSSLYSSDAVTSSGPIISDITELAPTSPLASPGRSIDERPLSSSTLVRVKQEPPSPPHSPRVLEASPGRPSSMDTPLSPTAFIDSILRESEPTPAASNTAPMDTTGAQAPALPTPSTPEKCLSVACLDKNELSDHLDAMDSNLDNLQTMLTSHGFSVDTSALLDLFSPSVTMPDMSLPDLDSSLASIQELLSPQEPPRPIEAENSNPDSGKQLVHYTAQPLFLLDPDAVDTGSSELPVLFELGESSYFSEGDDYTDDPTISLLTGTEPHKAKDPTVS

[5] = NIH-3T3 fibroblast cytotoxicity, dose response, cytotoxicity control, cell-based, fluorescence, Alamar Blue, secondary assay (AID 2327); assay type: functional;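 also: NIH-3T3 mouse fibroblasts cultured with fluconazole at 8 µg/mL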
[6] = target: T5, Polyadenylate-binding protein 1 (Homo sapiens, UniProt P11940); assay: PABP1 MLLE–PAM2 interaction inhibitors, dose response, miRNA deadenylation inhibitor project, biochemical, fluorescence polarization, Cy5-PAM2 peptide, secondary (AID 602260); assay type: functional; settings: read-out: IC50_Mean
T5 sequence (P11940 whole entry): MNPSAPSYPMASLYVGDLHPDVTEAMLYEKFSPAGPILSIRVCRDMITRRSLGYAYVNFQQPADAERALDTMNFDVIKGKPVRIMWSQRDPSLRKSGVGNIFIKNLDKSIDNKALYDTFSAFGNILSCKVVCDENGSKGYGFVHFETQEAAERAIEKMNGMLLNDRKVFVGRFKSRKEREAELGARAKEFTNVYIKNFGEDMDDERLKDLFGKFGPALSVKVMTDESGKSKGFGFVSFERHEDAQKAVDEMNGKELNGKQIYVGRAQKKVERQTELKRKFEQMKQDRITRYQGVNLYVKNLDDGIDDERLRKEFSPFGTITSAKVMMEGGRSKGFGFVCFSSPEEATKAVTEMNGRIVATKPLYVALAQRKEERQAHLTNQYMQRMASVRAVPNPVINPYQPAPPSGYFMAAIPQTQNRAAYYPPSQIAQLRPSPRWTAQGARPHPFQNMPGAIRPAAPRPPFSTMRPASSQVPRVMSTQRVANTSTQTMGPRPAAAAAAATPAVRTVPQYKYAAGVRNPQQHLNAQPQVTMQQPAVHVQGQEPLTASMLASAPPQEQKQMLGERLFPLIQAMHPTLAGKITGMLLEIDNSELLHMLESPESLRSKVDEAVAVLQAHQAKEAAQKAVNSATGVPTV

[7] = target: T5, Polyadenylate-binding protein 1; assay: PABP1 MLLE–PAM2 binding inhibitor potency, dose response, biochemical, fluorescence polarization, FITC-PAM2 peptide (AID 602259); assay type: functional; settings: read-out: IC50_Mean
Protein RecA = target: T6, Protein RecA (Mycobacterium tuberculosis, UniProt P9WHJ3); assay: Fluorescence Cell-Free Homogeneous Dose Retest to Identify Inhibitors of RecA-Intein Splicing Activity. [Related pubchem assays (depositor defined):AID2097, AID2223, AID489010, AID492950]; assay type: functional
T6 sequence (P9WHJ3 whole entry): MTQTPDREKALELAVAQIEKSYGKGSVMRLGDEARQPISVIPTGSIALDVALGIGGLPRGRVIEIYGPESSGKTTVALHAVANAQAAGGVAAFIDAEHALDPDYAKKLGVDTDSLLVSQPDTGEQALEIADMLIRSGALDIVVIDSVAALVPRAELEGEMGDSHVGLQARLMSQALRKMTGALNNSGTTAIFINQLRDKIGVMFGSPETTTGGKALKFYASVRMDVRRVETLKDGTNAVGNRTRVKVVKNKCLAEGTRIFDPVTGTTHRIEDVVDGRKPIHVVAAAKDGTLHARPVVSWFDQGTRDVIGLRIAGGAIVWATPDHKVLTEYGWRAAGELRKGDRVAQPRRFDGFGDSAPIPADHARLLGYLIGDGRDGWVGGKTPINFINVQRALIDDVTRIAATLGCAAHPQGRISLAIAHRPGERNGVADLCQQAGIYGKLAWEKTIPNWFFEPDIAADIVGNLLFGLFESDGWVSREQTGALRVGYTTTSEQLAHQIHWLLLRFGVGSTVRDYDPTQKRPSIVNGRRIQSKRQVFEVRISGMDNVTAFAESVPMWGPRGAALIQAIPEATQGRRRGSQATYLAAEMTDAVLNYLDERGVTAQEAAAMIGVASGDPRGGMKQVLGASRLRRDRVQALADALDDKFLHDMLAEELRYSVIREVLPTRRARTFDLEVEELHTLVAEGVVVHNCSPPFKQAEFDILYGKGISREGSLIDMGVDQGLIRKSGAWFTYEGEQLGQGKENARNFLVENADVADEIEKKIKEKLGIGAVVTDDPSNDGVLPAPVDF

[8] = target: T7, Replicative DNA helicase DnaB (Mycobacterium tuberculosis, UniProt P9WMR3); assay: DnaB intein splicing inhibitors, dose response, biochemical, cell-free fluorescence (AID 449749); assay type: functional
T7 sequence (P9WMR3 whole entry): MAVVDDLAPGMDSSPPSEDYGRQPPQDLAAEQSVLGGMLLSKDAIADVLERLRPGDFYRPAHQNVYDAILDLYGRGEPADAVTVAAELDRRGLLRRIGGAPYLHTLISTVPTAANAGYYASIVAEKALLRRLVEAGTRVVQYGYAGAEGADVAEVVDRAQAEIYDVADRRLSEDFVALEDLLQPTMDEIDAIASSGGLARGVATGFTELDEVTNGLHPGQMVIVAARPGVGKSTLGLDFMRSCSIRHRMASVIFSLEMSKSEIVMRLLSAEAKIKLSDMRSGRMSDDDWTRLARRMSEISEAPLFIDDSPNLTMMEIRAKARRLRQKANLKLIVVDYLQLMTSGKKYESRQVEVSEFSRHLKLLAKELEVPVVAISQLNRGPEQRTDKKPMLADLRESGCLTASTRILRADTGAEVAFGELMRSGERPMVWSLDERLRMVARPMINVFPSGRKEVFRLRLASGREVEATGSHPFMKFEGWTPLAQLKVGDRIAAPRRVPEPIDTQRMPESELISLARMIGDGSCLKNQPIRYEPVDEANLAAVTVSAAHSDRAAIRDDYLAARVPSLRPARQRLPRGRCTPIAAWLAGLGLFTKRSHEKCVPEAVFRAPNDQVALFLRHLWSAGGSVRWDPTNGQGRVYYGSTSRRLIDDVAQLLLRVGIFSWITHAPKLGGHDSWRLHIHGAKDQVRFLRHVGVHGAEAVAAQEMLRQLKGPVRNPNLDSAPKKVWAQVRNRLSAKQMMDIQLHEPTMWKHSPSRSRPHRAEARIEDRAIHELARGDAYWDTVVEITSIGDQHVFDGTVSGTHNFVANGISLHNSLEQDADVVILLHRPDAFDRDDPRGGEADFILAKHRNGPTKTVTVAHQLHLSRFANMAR

Streptokinase A = target: T8, Streptokinase A (Streptococcus pyogenes serotype M1, UniProt P10520); assay: S. pyogenes streptokinase expression inhibitors, potency, dose response, plasminogen activation absorbance, OD405 (AID 1914); assay type: functional, Streptococcus pyogenes M1 GAS;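 also: secreted streptokinase activity via plasminogen activation per viability signal from cell pellet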
T8 sequence (P10520 whole entry): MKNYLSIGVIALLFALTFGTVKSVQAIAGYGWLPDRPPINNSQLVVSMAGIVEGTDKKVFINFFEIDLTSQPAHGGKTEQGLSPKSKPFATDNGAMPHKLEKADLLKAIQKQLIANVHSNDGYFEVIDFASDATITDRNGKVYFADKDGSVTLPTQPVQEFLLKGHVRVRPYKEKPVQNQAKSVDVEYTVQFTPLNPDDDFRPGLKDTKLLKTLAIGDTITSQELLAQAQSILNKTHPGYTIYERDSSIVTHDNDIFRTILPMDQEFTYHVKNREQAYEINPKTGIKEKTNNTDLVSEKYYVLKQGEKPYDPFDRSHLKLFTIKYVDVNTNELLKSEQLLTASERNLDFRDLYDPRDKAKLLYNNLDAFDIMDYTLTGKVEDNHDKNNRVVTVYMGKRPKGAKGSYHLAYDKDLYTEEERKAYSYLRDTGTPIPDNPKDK

[9] = test system: Streptococcus sp. 'group A'; assay: growth inhibition of control SK(-) GAS strain, dose response, counter-screen for streptokinase expression inhibitor project, luminescence, kanamycin, BacTiterGlo, confirmation (AID 1900); assay type: functional, organism-based
Streptococcus = assay: Group A Streptococcus viability loss, dose response, counter-screen for streptokinase expression inhibitor project, luminescence, BacTiterGlo (AID 1915); assay type: functional, organism-based;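 also: potency for reduction of bacterial viability or growth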

## O=C(CNC(=O)c1ccco1)OCc1ccc(C(=O)Oc2ccccc2)cc1
cells
  IC50: 11.7 µM (active)
[1]
  CC50: > 40 µM (active)

## CCOc1ccc(N/C(=C(/C(Cl)=C(Cl)Cl)[N+](=O)[O-])n2cncn2)cc1
[2]
  EC50: 46.9 µM (active)
[3]
  EC50: 45.4 µM (active)

## COc1ccc(NC(=O)CSc2nnc(NC(=O)c3ccccc3C(=O)O)s2)cc1
Leucine aminopeptidase
  IC50: 6.27 µM (active)

## CC1=C(C#N)C(=O)OC(C)(C)C1
[2]
  EC50: 10.8 µM (active)
[3]
  EC50: 10.1 µM (active)

## CCC1(c2ccccc2)NC(=O)N(CC(=O)NCc2ccc(F)cc2)C1=O (stereo unspecified)
[2]
  EC50: > 300 µM (not active)
[3]
  EC50: > 300 µM (not active)

## NC(=O)CC(NC(=O)Cc1ccc(Cl)cc1)c1ccc(NC2CCCCCC2)c([N+](=O)[O-])c1 (stereo unspecified)
[4]
  EC50: > 195 µM (not active)
[2]
  EC50: > 300 µM (not active)
[3]
  EC50: > 300 µM (not active)

## C=C(C)c1cccc(C(C)(C)NC(=O)Nc2ccc(C(N)=O)cc2)c1
[5]
  EC50: > 150 µM (inactive)

## S=C1NC(c2ccccc2)N2C(=S)NC(c3ccccc3)N12 (stereo unspecified)
Leucine aminopeptidase
  IC50: 20.9 µM (active)

## COC(=O)c1c(N=C(S)Nc2cc(OC)c(Cl)cc2OC)sc2c1CCCCC2
[6]
  IC50: > 66 µM (inactive)
[7]
  IC50: > 66 µM (inactive)

## CCOC(=O)c1cnn2cc(-c3[nH]ncc3[N+](=O)[O-])cnc12
Leucine aminopeptidase
  IC50: 5.26 µM (active)

## O=C(c1ccco1)N1CCN(c2ncnc3c(-c4ccc(Cl)cc4)nsc23)CC1
[2]
  EC50: > 300 µM (not active)
[3]
  EC50: > 300 µM (not active)

## COc1ccc(NC(=O)Nc2ccc3oc(C)nc3c2)cc1
Leucine aminopeptidase
  IC50: 14.8 µM (active)

## CCCCC1=CC2=CC(=O)C(C)(OC(=O)CCC(=O)OC)C(=O)C2=CO1 (stereo unspecified)
[2]
  EC50: 30 µM (active)
[3]
  EC50: 26.6 µM (active)

## CCCN1C(=O)/C(=C/c2ccc(C)o2)S/C1=N/c1ccc(OC)cc1
[2]
  EC50: 44.6 µM (active)
[3]
  EC50: 103 µM (inconclusive)

## CC(/C=N/NC(=O)Cc1cc(O)[nH]n1)=C\c1ccccc1
Leucine aminopeptidase
  IC50: 72.4 µM (active)
Protein RecA
  EC50: 0.935 µM (active)
[8]
  AC50: 2.53 µM (active)

## COc1cccc(/C=N/NC(=O)CC2C(=O)NN=C2C)c1OC (stereo unspecified)
Leucine aminopeptidase
  IC50: 23.5 µM (active)

## Cc1nn(-c2ccccc2)c(C)c1/C=N/NC(=O)c1cc(-c2cccc3ccccc23)[nH]n1
Streptokinase A
  EC50: > 150 µM (not active)
[9]
  EC50: 18.6 µM (active)
[1]
  CC50: 30.5 µM (active)
Streptococcus
  EC50: 89.4 µM (active)

## C/C(=N\Nc1ccc([N+](=O)[O-])cc1[N+](=O)[O-])c1cc2c(ccc3ccccc32)oc1=O
[2]
  EC50: > 300 µM (not active)
[3]
  EC50: > 300 µM (not active)

## O=C(/N=C1\SC2CS(=O)(=O)CC2N1c1ccccc1)C1CC1 (stereo unspecified)
[2]
  EC50: > 300 µM (not active)
[3]
  EC50: > 300 µM (inconclusive)
